Laboratory results reported in US7507823B2, “Process of making aripiprazole particles” (Bristol-Myers Squibb Company, priority 2004, dated 2009).
Values after ≈ are worked out from the molar mass of the structure shown.

Assay: Solubility of aripiprazole in n-propanol
Format: physicochemical
Conditions: organic solvent or mixture; solvent n-propanol (n-PrOH)
Procedure: The solubility of aripiprazole in n-PrOH is low, only about 7 mg/ml. Therefore, a highly saturated solution could be produced with a very low solution concentration. At such low concentrations, the number of nucleation sites within the nozzle is low enough to prevent substantial blockages. When processing n-PrOH solutions at […], pressure fluctuations were reduced to a more satisfactory level of <35 bar. […] Water was again incorporated into the solution, in an attempt to produce the monohydrate. […] The sample was, however, anhydrous.

Compound: O=C1CCc2ccc(OCCCCN3CCN(c4cccc(Cl)c4Cl)CC3)cc2N1 [aripiprazole, 7-(4-[4-(2,3-dichloropheny)-1-piperazinyl]-butoxy)-3,4-dihydro carbostyril]
- solubility: ~7000 µg/mL (≈ 15.6 mM)
